Laboratory results taken from patent publication US6096874A (Board of Regents, the University of Texas System, priority 1995, dated 2000).

Assays:
in vivo = assay: in vivo; design: species or system rat; details: for tissue uptake at 1 h / tissue uptake at 3 h / tissue uptake at 6 h / tissue uptake at 24 h / Tissue uptake findings (in words): rat; for tissue uptake at 1 h / tissue uptake at 3 h / tissue uptake at 6 h / tissue uptake at 24 h: iv; for Tissue uptake findings (in words): in vivo
Description: In animal tissue distribution studies, each rate was given 8.9 μCi (0.15 ml) tracer intravenously. The tumor-bearing rats were killed at 1, 3, 6 and 24 h. […] The amount of DES given should occupy tumor estrogen receptor sites. The methods for inducing tumors in rats was as described by those of skill in the art (radiology). […]
Female Fisher 344 rats (250-275 g) (Harlan, Inc., Indianapolis, Ind.) were inoculated with mammary tumor cells using the 13762 tumor cell line (s.c. 10^5 cells/rat). After 14 days, a tumor size of 1-2 cm was observed. For ^131 I-ITX studies, five groups of rats (N=3/group) were anesthetized with ketamine (10-15 mg/rat). The trans ^131 I-ITX was given to four of the five groups (8.9 μCi/rat, i.v.) and biodistribution was studied at 1, 3, 6 and 24 h intervals. In blocking studies, the fifth group of rats was given diethylstilbestrol (DES) (1.2 mg/rat) for 1 h, followed by 8.9 μCi of ^131 I-ITX; biodistribution was studied 6 h later. The tissues were collected at different time intervals. The tissues were weighted and counted for radioactivity. The percent of injected dose per gram of tissue weight was calculated. […]

[1] = Biodistribution in mammary tumor-bearing rats primed with estradiol; type: in vivo, rat; details: for tissue uptake at 1 h / tissue uptake at 3 h / tissue uptake at 6 h / tissue uptake at 24 h: rat, iv
Description: Female Fisher 344 rats (250-275 g) (Harlan, Inc., Indianapolis, Ind.) were inoculated with mammary tumor cells using the 13762 tumor cell line (s.c. 10^5 cells/rat). After 14 days, a tumor size of 1-2 cm was observed. For ^131 I-ITX studies, five groups of rats (N=3/group) were anesthetized with ketamine (10-15 mg/rat). […] In blocking studies, the fifth group of rats was given diethylstilbestrol (DES) (1.2 mg/rat) for 1 h, followed by 8.9 μCi of ^131 I-ITX; biodistribution was studied 6 h later. The tissues were collected at different time intervals. The tissues were weighted and counted for radioactivity. The percent of injected dose per gram of tissue weight was calculated.
[…]. The biodistribution studies were conducted at 1, 3, 6 and 24 h.

rabbit uterus = assay: Gamma scintigraphic imaging of estrogen receptor sites in rabbits; type: in vivo; details: for Rabbit uterus uptake after DES block (in words): DES 15 mg iv pretreatment
Description: Gamma scintigraphic images were obtained from GE Starport System (GE Company, Milwaukee, Wis.). […] Each pixel was 14 bits deep. Six New Zealand female rabbits (3-4 Kg B.W.) were administered 300 μCi of [^131 I]iodotamoxifen (iv) and multiple images at 2, 24 and 48 hours were accomplished. To ascertain the radioactivity uptake in uterus is via an ER-mediated process, the rabbits were administered with diethylstilbestrol (15 mg,iv) 1 hour prior to receiving [^131 I]ITX and the images were obtained at 2, 24 and 48 hours.

[2] = 6 h, pretreated with DES (blocking)
[3] = 24 h, listed as 131 I-ITX, 1440 min
[4] = tumor, 1 h, read-out: Tumor uptake
[5] = tumor, 3 h, read-out: Tumor uptake
[6] = tumor, 6 h, read-out: Tumor uptake
[7] = tumor, 24 h, read-out: Tumor uptake

Structure (SMILES): CCN(CC)CCOc1ccc(/C(=C(/CCC[131I])c2ccccc2)c2ccccc2)cc1 [^131 I-IODOTAMOXIFEN]
- Tumor uptake (in vivo; 1 h, 60 min): 0.181 % injected dose/gram tissue
- Tumor uptake (in vivo; 3 h, 180 min): 0.229 % injected dose/gram tissue
- Blood uptake (in vivo; [2]): 0.072 % injected dose/gram tissue
- Kidney uptake (in vivo; [2]): 1.296 % injected dose/gram tissue
- Liver uptake (in vivo; [2]): 4.682 % injected dose/gram tissue
- Lung uptake (in vivo; [2]): 2.173 % injected dose/gram tissue
- Muscle uptake (in vivo; [2]): 0.172 % injected dose/gram tissue
- Spleen uptake (in vivo; [2]): 2.366 % injected dose/gram tissue
- Thyroid uptake (in vivo; [2]): 0.640 % injected dose/gram tissue
- Uterus uptake (in vivo; [2]): 0.325 % injected dose/gram tissue
- Tumor uptake (in vivo; 6 h, pretreated with DES (blocking), 360 min): 0.217 % injected dose/gram tissue
- Tumor uptake (in vivo; 6 h, pretreated with DES (blocking), listed as 131 I-TX, 360 min): 0.22±0.059 % injected dose/gram tissue
- Tumor uptake (in vivo; 6 h, pretreated with DES (blocking), listed as [^131 I]ITX, 360 min): 0.22±0.044 % injected dose/gram tissue
- Tumor uptake (in vivo; 6 h, 360 min): 0.261 % injected dose/gram tissue
- Tumor uptake (in vivo; 24 h, 1440 min): 0.267 % injected dose/gram tissue
- Tumor uptake (in vivo; [3]): 0.267±0.0160 % injected dose/gram tissue
- tissue uptake at 1 h (in vivo; blood, 1 h, read-out: Blood uptake): 0.158 %ID/g
- tissue uptake at 3 h (in vivo; blood, 3 h, read-out: Blood uptake): 0.121 %ID/g
- tissue uptake at 6 h (in vivo; blood, 6 h, read-out: Blood uptake): 0.124 %ID/g
- tissue uptake at 24 h (in vivo; blood, 24 h, read-out: Blood uptake): 0.001 %ID/g
- Tissue uptake findings (in words) (in vivo): both tumor and uterus uptake can be blocked
- Tissue uptake findings (in words) (in vivo; listed as 131 I-ITX): both tumor and uterus value were decreased in 6 h blocking group
- tissue uptake at 1 h (in vivo; kidney, 1 h, read-out: Kidney uptake): 1.88 %ID/g
- tissue uptake at 3 h (in vivo; kidney, 3 h, read-out: Kidney uptake): 2.37 %ID/g
- tissue uptake at 6 h (in vivo; kidney, 6 h, read-out: Kidney uptake): 1.36 %ID/g
- tissue uptake at 24 h (in vivo; kidney, 24 h, read-out: Kidney uptake): 0.381 %ID/g
- tissue uptake at 1 h (in vivo; liver, 1 h, read-out: Liver uptake): 5.6 %ID/g
- tissue uptake at 3 h (in vivo; liver, 3 h, read-out: Liver uptake): 6 %ID/g
- tissue uptake at 6 h (in vivo; liver, 6 h, read-out: Liver uptake): 4.63 %ID/g
- tissue uptake at 24 h (in vivo; liver, 24 h, read-out: Liver uptake): 2.47 %ID/g
- tissue uptake at 1 h (in vivo; lung, 1 h, read-out: Lung uptake): 3.95 %ID/g
- tissue uptake at 3 h (in vivo; lung, 3 h, read-out: Lung uptake): 3.71 %ID/g
- tissue uptake at 6 h (in vivo; lung, 6 h, read-out: Lung uptake): 2.84 %ID/g
- tissue uptake at 24 h (in vivo; lung, 24 h, read-out: Lung uptake): 0.512 %ID/g
- tissue uptake at 1 h (in vivo; muscle, 1 h, read-out: Muscle uptake): 0.201 %ID/g
- tissue uptake at 3 h (in vivo; muscle, 3 h, read-out: Muscle uptake): 0.253 %ID/g
- tissue uptake at 6 h (in vivo; muscle, 6 h, read-out: Muscle uptake): 0.204 %ID/g
- tissue uptake at 24 h (in vivo; muscle, 24 h, read-out: Muscle uptake): 0.005 %ID/g
- tissue uptake at 1 h (in vivo; spleen, 1 h, read-out: Spleen uptake): 3.38 %ID/g
- tissue uptake at 3 h (in vivo; spleen, 3 h, read-out: Spleen uptake): 3.31 %ID/g
- tissue uptake at 6 h (in vivo; spleen, 6 h, read-out: Spleen uptake): 2.33 %ID/g
- tissue uptake at 24 h (in vivo; spleen, 24 h, read-out: Spleen uptake): 0.688 %ID/g
- tissue uptake at 1 h (in vivo; thyroid, 1 h, read-out: Thyroid uptake): 0.393 %ID/g
- tissue uptake at 3 h (in vivo; thyroid, 3 h, read-out: Thyroid uptake): 0.748 %ID/g
- tissue uptake at 6 h (in vivo; thyroid, 6 h, read-out: Thyroid uptake): 0.776 %ID/g
- tissue uptake at 24 h (in vivo; thyroid, 24 h, read-out: Thyroid uptake): 0.493 %ID/g
- tissue uptake at 1 h (in vivo; [4]): 0.18 ± 0.062 %ID/g
- tissue uptake at 3 h (in vivo; [5]): 0.23 ± 0.152 %ID/g
- tissue uptake at 6 h (in vivo; [6]): 0.26 ± 0.166 %ID/g
- tissue uptake at 24 h (in vivo; [7]): 0.27 ± 0.016 %ID/g
- tissue uptake at 1 h (in vivo; uterus, 1 h, read-out: Uterus uptake): 0.414 %ID/g
- tissue uptake at 3 h (in vivo; uterus, 3 h, read-out: Uterus uptake): 0.546 %ID/g
- tissue uptake at 6 h (in vivo; uterus, 6 h, read-out: Uterus uptake): 0.408 %ID/g
- tissue uptake at 24 h (in vivo; uterus, 24 h, read-out: Uterus uptake): 0.151 %ID/g
- Tumor uptake ([1]; 1 h, listed as 131 I-Iodo Analogue of Tamoxifen, 60 min): 0.303 ± 0.0333 % injected dose/gram tissue
- Tumor uptake ([1]; 3 h, listed as 131 I-Iodo Analogue of Tamoxifen, 180 min): 0.422 ± 0.0389 % injected dose/gram tissue
- Tumor uptake ([1]; 6 h, listed as 131 I-Iodo Analogue of Tamoxifen, 360 min): 0.479 ± 0.1065 % injected dose/gram tissue
- Tumor uptake [1, 3]: 0.397±0.1231 % injected dose/gram tissue
- Tumor uptake ([1]; 24 h, listed as 131 I-Iodo Analogue of Tamoxifen, 1440 min): 0.397 % injected dose/gram tissue
- tissue uptake at 1 h ([1]; blood, 10 uCi/rat, 1 h, read-out: Blood uptake): 0.155 ± 0.004 %ID/g
- tissue uptake at 3 h ([1]; blood, 10 uCi/rat, 3 h, read-out: Blood uptake): 0.12 ± 0.0137 %ID/g
- tissue uptake at 6 h ([1]; blood, 10 uCi/rat, 6 h, read-out: Blood uptake): 0.086 ± 0.0018 %ID/g
- tissue uptake at 24 h ([1]; blood, 10 uCi/rat, 24 h, read-out: Blood uptake): 0.036 ± 0.0001 %ID/g
- tissue uptake at 1 h ([1]; kidney, 10 uCi/rat, 1 h, read-out: Kidney uptake): 1.3 ± 0.0839 %ID/g
- tissue uptake at 3 h ([1]; kidney, 10 uCi/rat, 3 h, read-out: Kidney uptake): 1.49 ± 0.107 %ID/g
- tissue uptake at 6 h ([1]; kidney, 10 uCi/rat, 6 h, read-out: Kidney uptake): 1.39 ± 0.116 %ID/g
- tissue uptake at 24 h ([1]; kidney, 10 uCi/rat, 24 h, read-out: Kidney uptake): 0.573 %ID/g
- tissue uptake at 1 h ([1]; liver, 10 uCi/rat, 1 h, read-out: Liver uptake): 6.746 ± 0.0546 %ID/g
- tissue uptake at 3 h ([1]; liver, 10 uCi/rat, 3 h, read-out: Liver uptake): 6.73 ± 0.122 %ID/g
- tissue uptake at 6 h ([1]; liver, 10 uCi/rat, 6 h, read-out: Liver uptake): 4.67 ± 0.461 %ID/g
- tissue uptake at 24 h ([1]; liver, 10 uCi/rat, 24 h, read-out: Liver uptake): 2.71 %ID/g
- tissue uptake at 1 h ([1]; lung, 10 uCi/rat, 1 h, read-out: Lung uptake): 2.83 ± 0.14 %ID/g
- tissue uptake at 3 h ([1]; lung, 10 uCi/rat, 3 h, read-out: Lung uptake): 3.04 ± 0.411 %ID/g
- tissue uptake at 6 h ([1]; lung, 10 uCi/rat, 6 h, read-out: Lung uptake): 3.06 ± 0.458 %ID/g
- tissue uptake at 24 h ([1]; lung, 10 uCi/rat, 24 h, read-out: Lung uptake): 1.12 %ID/g
- tissue uptake at 1 h ([1]; muscle, 10 uCi/rat, 1 h, read-out: Muscle uptake): 0.214 ± 0.0176 %ID/g
- tissue uptake at 3 h ([1]; muscle, 10 uCi/rat, 3 h, read-out: Muscle uptake): 0.242 ± 0.187 %ID/g
- tissue uptake at 6 h ([1]; muscle, 10 uCi/rat, 6 h, read-out: Muscle uptake): 0.253 ± 0.0208 %ID/g
- tissue uptake at 24 h ([1]; muscle, 10 uCi/rat, 24 h, read-out: Muscle uptake): 0.114 %ID/g
- tissue uptake at 1 h [1, 4]: 0.3 ± 0.033 %ID/g
- tissue uptake at 3 h [1, 5]: 0.42 %ID/g
- tissue uptake at 6 h [1, 6]: 0.48 ± 0.107 %ID/g
- tissue uptake at 24 h [1, 7]: 0.4 ± 0.123 %ID/g
- tissue uptake at 1 h ([1]; uterus, 10 uCi/rat, 1 h, read-out: Uterus uptake): 0.334 ± 0.0485 %ID/g
- tissue uptake at 3 h ([1]; uterus, 10 uCi/rat, 3 h, read-out: Uterus uptake): 0.4 ± 0.132 %ID/g
- tissue uptake at 6 h ([1]; uterus, 10 uCi/rat, 6 h, read-out: Uterus uptake): 0.559 ± 0.0982 %ID/g
- tissue uptake at 24 h ([1]; uterus, 10 uCi/rat, 24 h, read-out: Uterus uptake): 0.335 %ID/g
- uterus:muscle uptake ratio (rabbit uterus; 24 h postinjection): 4.6
- Rabbit uterus uptake after DES block (in words) (rabbit uterus; listed as 131 l-iodotamoxifen): the uterus showed decreased uptake
- Rabbit uterus uptake after DES block (in words) (rabbit uterus; listed as [^131 I]ITX): rabbit uterus uptake can be blocked by pretreatment with DES
- Rabbit uterus uptake after DES block (in words) (rabbit uterus; listed as [^131 ]ITX): increased uptake can be blocked by pretreatment of the rabbit with DES
